In general, IC50 refers to the concentration needed to halve the response being measured. A high value points to a need for much substance.

One experiment deals with TBK1 (Homo sapiens (Human), UniProt Q9UHD2). Description: TBK Biochemical Assay. The gist of the method: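 Enzyme and substrate with compound (10-point 1:4 series, top 30 uM final, 1% DMSO) incubated 90 min at 25 °C, then stopped; substrate/product separated and read by LabChip mobility-shift, staurosporine 10 uM final as full-inhibition control.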
Sequence of TBK1 (Q9UHD2 whole entry, species assumed): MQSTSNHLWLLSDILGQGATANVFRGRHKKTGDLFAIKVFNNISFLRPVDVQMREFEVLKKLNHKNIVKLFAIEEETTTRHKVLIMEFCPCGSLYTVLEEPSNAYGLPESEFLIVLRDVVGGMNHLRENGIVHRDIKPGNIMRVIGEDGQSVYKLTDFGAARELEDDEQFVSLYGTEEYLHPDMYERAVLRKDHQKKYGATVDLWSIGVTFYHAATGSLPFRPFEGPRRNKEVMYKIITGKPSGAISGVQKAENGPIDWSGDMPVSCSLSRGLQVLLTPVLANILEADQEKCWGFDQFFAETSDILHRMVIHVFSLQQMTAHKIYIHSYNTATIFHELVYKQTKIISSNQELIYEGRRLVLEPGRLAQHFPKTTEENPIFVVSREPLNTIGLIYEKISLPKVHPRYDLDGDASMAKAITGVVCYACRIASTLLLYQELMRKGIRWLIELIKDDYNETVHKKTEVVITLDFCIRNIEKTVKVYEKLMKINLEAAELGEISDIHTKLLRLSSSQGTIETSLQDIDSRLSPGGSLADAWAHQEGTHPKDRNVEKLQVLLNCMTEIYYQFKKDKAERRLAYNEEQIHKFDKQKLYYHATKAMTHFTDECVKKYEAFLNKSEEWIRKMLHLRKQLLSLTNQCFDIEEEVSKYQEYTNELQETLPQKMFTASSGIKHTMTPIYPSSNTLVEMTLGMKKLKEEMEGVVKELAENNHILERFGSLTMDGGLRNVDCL
A further experiment addresses IKKe (Homo sapiens (Human), UniProt Q14164). Description: IKKe Biochemical Assay. The gist of the method:
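Human IKKε activity was measured with compounds in a 10-point 1:4 dilution series, top concentration 30 uM final, in 1% DMSO final; 10 uM staurosporine served as the control. Enzyme and substrate were incubated 90 min at 25° C, then stopped, and substrate/product peaks were separated by microfluidic mobility-shift on a LabChip EZ Reader II.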

Structures can show the parent of a compound that is named as a salt.

Sequence of IKKe (Q14164 whole entry, species assumed): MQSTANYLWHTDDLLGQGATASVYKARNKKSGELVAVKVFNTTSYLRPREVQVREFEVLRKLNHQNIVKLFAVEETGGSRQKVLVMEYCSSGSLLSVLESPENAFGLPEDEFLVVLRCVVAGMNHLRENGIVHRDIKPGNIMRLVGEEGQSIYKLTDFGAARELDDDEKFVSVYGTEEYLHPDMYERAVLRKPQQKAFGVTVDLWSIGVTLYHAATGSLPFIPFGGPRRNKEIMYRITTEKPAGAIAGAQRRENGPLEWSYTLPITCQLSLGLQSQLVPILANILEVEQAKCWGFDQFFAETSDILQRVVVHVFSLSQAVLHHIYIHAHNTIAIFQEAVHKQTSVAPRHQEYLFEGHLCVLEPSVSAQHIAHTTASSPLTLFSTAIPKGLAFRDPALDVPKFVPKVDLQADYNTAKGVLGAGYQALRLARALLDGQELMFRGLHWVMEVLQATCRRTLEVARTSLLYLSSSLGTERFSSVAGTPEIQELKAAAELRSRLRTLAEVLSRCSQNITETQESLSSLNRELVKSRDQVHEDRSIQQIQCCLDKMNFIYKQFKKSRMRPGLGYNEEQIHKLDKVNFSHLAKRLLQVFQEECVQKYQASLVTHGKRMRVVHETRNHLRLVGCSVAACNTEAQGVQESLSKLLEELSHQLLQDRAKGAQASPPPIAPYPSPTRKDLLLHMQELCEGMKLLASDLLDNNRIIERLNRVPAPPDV

On to `COc1nc(Nc2cc(-c3ccc(OC4CCN(C(=O)c5cnco5)CC4)c(C#N)c3)ncn2)ccc1N1CCN(C)CC1` [Example 56, 5-(6-[[6-methoxy-5-(4-methylpiperazin-1-yl)pyridin-2-yl]amino]pyrimidin-4-yl)-2-([1-[(1,3-oxazol-5-yl)carbonyl]piperidin-4-yl]oxy)benzonitrile], for which the IC50 at TBK1 and at IKKe was less than 100 nM throughout.
On to `COc1nc(Nc2cc(-c3ccc(OC4CCN(C(=O)[C@@H](C)O)CC4(F)F)c(C#N)c3)ncn2)ccc1N1CCN(C)[C@@H](C)C1` (stereo partly drawn) [Example 81, 2-([3,3-difluoro-1-[(2R)-2-hydroxypropanoyl]piperidin-4-yl]oxy)-5-[6-([5-[(3S)-3,4-dimethylpiperazin-1-yl]-6-methoxypyridin-2-yl]amino)pyrimidin-4-yl]benzonitrile], for which the IC50 at TBK1 and against IKKe was less than 100 nM in each case.
For `COc1nc(Nc2cc(-c3ccc(O[C@H]4CCN(C(=O)[C@@H](C)O)CC4(F)F)c(C#N)c3)ncn2)ccc1N1CCN(C2COC2)C[C@@H]1C` [Example 99, 2-((S)-3,3-difluoro-1-((R)-2-hydroxypropanoyl)piperidin-4-yloxy)-5-(6-(6-methoxy-5-((S)-2-methyl-4-(oxetan-3-yl)piperazin-1-yl)pyridin-2-ylamino)pyrimidin-4-yl)benzonitrile], the concentration for half-maximal inhibition (IC50) against TBK1 and on IKKe was less than 100 nM each time.
For `COc1nc(Nc2cc(-c3ccc(O[C@H]4CCN(C(=O)[C@H](C)O)CC4(F)F)c(C#N)c3)ncn2)ccc1N1CCN(C2COC2)CC1` [Example 91, 2-[[(4S)-3,3-difluoro-1-[(2S)-2-hydroxypropanoyl]piperidin-4-yl]oxy]-5-[6-([6-methoxy-5-[4-(oxetan-3-yl)piperazin-1-yl]pyridin-2-yl]amino)pyrimidin-4-yl]benzonitrile], the IC50 against TBK1 and on IKKe was less than 100 nM throughout.
In the case of `COc1cc(Nc2cc(-c3ccc(OC4CCOCC4)c(C#N)c3)ncn2)ncc1C1CCN(C)CC1` [Example 36, 5-(6-[[4-methoxy-5-(1-methylpiperidin-4-yl)pyridin-2-yl]amino]pyrimidin-4-yl)-2-(oxan-4-yloxy)benzonitrile], the IC50 against TBK1 and against IKKe was less than 100 nM each time.
Regarding `COc1nc(Nc2cc(-c3ccc(OC4CCOCC4)c(C#N)c3)ncn2)ccc1N(C)CC(=O)N(C)C` [Example 13, 2-[[6-([6-[3-cyano-4-(oxan-4-yloxy)phenyl]pyrimidin-4-yl]amino)-2-methoxypyridin-3-yl](methyl)amino]-N,N-dimethylacetamide], the IC50 against TBK1 and against IKKe was less than 100 nM in each case.
In the case of `COc1nc(Nc2cc(-c3ccc(OC4CCOCC4)c(C#N)c3)ncn2)ccc1C(=O)NC1CN2CCC1CC2` (stereo not shown) [Example 89, 6-((6-(3-cyano-4-((tetrahydro-2H-pyran-4-yl)oxy)phenyl)pyrimidin-4-yl)amino)-2-methoxy-N-(quinuclidin-3-yl)nicotinamide], the half-maximal inhibitory concentration (IC50) on TBK1 and on IKKe was less than 100 nM throughout.
In the case of `COc1nc(Nc2cc(-c3ccc(OC4CCNCC4(F)F)c(C#N)c3)ncn2)ccc1N1CCN(C)C[C@H]1C` (stereo partly drawn) [Example 64, 2-[(3,3-difluoropiperidin-4-yl)oxy]-5-[6-({5-[(2R)-2,4-dimethylpiperazin-1-yl]-6-methoxypyridin-2-yl}amino)pyrimidin-4-yl]benzonitrile], the IC50 against TBK1 and against IKKe was less than 100 nM each time.
`COc1nc(Nc2cc(-c3cnc(OC4CCOCC4)c(C#N)c3)ncn2)ccc1N1CCN(C)CC1` [Example 23, 5-(6-[[6-methoxy-5-(4-methylpiperazin-1-yl)pyridin-2-yl]amino]pyrimidin-4-yl)-2-(oxan-4-yloxy)pyridine-3-carbonitrile]: the IC50 against TBK1 and against IKKe was less than 100 nM each time.
For `COc1nc(Nc2cc(-c3ccc(OC4CCN(C(=O)[C@H](C)O)CC4(F)F)c(C#N)c3)ncn2)ccc1N1CCN(C)C[C@@H]1C` (stereo partly drawn) [Example 62, 2-([3,3-difluoro-1-[(2S)-2-hydroxypropanoyl]piperidin-4-yl]oxy)-5-[6-([5-[(2S)-2,4-dimethylpiperazin-1-yl]-6-methoxypyridin-2-yl]amino)pyrimidin-4-yl]benzonitrile hydrochloride], the half-maximal inhibitory concentration (IC50) on TBK1 and against IKKe was less than 100 nM throughout.
Regarding `COc1nc(Nc2cc(-c3ccc(OC4CCOCC4)c(C#N)c3)ncn2)ccc1N1C[C@@H](C)O[C@@H](C)C1` [Example 15, 5-[6-([5-[(2R,6S)-2,6-dimethylmorpholin-4-yl]-6-methoxypyridin-2-yl]amino)pyrimidin-4-yl]-2-(oxan-4-yloxy)benzonitrile], the 50% inhibitory concentration (IC50) at TBK1 and at IKKe was less than 100 nM throughout.
On to `COc1nc(Nc2cc(-c3ccc(OC4CCN(C(=O)[C@H](C)O)CC4)c(C#N)c3)ncn2)ccc1C(=O)N(C)C` [Example 105, 6-([6-[3-cyano-4-([1-[(2S)-2-hydroxypropanoyl]piperidin-4-yl]oxy)phenyl]pyrimidin-4-yl]amino)-2-methoxy-N,N-dimethylpyridine-3-carboxamide], for which the IC50 against TBK1 and against IKKe was less than 100 nM throughout.
In the case of `COc1nc(Nc2cc(-c3ccc(O[C@H]4CCN(C(=O)[C@H](C)O)CC4(F)F)c(C#N)c3)ncn2)ccc1N1CCN(C2COC2)C[C@H]1C` [Example 103, 2-[[(4S)-3,3-difluoro-1-[(2S)-2-hydroxypropanoyl]piperidin-4-yl]oxy]-5-[6-([6-methoxy-5-[(2R)-2-methyl-4-(oxetan-3-yl)piperazin-1-yl]pyridin-2-yl]amino)pyrimidin-4-yl]benzonitrile], the IC50 against TBK1 and at IKKe was less than 100 nM throughout.
In the case of `COc1nc(Nc2cc(-c3ccc(OC4CCOCC4)c(C#N)c3)ncn2)ccc1C1CCN(C)CC1` [Example 18, 5-(6-[[6-methoxy-5-(1-methylpiperidin-4-yl)pyridin-2-yl]amino]pyrimidin-4-yl)-2-(oxan-4-yloxy)benzonitrile], the 50% inhibitory concentration (IC50) on TBK1 and against IKKe was less than 100 nM throughout.
Take `COc1nc(Nc2cc(-c3ccc(OC4CCOCC4)c(C#N)c3)ncn2)ccc1C(=O)N1CC2COCC2C1` (stereo not shown) [Example 6, 5-(6-[[5-([hexahydro-1H-furo[3,4-c]pyrrol-5-yl]carbonyl)-6-methoxypyridin-2-yl]amino]pyrimidin-4-yl)-2-(oxan-4-yloxy)benzonitrile]: the half-maximal inhibitory concentration (IC50) on TBK1 and at IKKe was less than 100 nM throughout.
For `COc1nc(Nc2cc(-c3ccc(O[C@@H]4CCN(C(=O)[C@H](C)O)CC4(F)F)c(C#N)c3)ncn2)ccc1N1CCN(C2COC2)C[C@H]1C` [Example 104, 2-[[(4R)-3,3-difluoro-1-[(2S)-2-hydroxypropanoyl]piperidin-4-yl]oxy]-5-[6-([6-methoxy-5-[(2R)-2-methyl-4-(oxetan-3-yl)piperazin-1-yl]pyridin-2-yl]amino)pyrimidin-4-yl]benzonitrile], the IC50 against TBK1 and on IKKe was less than 100 nM throughout.
Consider `COc1cc(Nc2cc(-c3ccc(OC4CCOCC4)c(C#N)c3)ncn2)cnc1C1CCN(C)CC1` [Example 35, 5-(6-[[5-methoxy-6-(1-methylpiperidin-4-yl)pyridin-3-yl]amino]pyrimidin-4-yl)-2-(oxan-4-yloxy)benzonitrile], for which the IC50 on TBK1 and at IKKe was 100 to 1000 nM in each case.

The values above are taken from patent US11440899B2, “Pyrimidine TBK/IKKe inhibitor compounds and uses thereof” (Merck Patent GmbH, priority 2017, dated 2022).
